Results taken from US10329294B2, “Pyrazolopyrimidine inhibitors of IRAK4 activity” (MERCK SHARP & DOHME CORP., priority 2015, dated 2019).
Structures can show the parent of a compound that is named as a salt.

Target: IRAK4 (Homo sapiens (Human), UniProt Q9NWZ3)
Assay: IRAK4 Kinase Assay
Assay type: biochemical
Settings: IMAP fluorescence polarization, 0.5 nM GST tagged IRAK4, 100 μM ATP, 30 minutes at 25° C.; read-out: IRAK4 IC50

IRAK4, sequence (Q9NWZ3 whole entry): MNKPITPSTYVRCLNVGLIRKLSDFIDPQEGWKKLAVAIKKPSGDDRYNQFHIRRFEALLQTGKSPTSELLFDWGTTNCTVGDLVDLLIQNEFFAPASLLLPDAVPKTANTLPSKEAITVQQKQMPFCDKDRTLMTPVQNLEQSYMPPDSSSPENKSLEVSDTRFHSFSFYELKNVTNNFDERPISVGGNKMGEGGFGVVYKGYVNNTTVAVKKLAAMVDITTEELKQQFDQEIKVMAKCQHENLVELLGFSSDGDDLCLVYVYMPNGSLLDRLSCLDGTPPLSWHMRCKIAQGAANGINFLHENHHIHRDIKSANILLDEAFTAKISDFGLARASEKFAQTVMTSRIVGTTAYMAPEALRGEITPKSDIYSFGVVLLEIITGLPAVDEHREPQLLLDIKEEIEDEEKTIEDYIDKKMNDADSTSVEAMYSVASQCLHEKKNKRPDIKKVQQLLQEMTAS

IC50 [nM] | SMILES
789 | Cn1cc(NC(=O)c2cnn3ccc(N4CCNCCC45CC5)nc23)c(C(F)(F)F)n1 [Example 95, 5-(4,7-diazaspiro[2.6]non-4-yl)-N-[1-methyl-3-(trifluoromethyl)-1H-pyrazol-4-yl]pyrazolo[1,5-a]pyrimidine-3-carboxamide trifluoroacetate]
2 | Cn1cc(NC(=O)c2cnn3ccc(N4CC5CCC4CN5)nc23)c(C(F)F)n1 (stereo not shown) [Example 96, 5-(2,5-diazabicyclo[2.2.2]oct-2-yl)-N-[3-(difluoromethyl)-1-methyl-1H-pyrazol-4-yl]pyrazolo[1,5-a]pyrimidine-3-carboxamide trifluoroacetate]
33 | Cn1cc(NC(=O)c2cnn3ccc(N4CCCNCC45CC5)nc23)c(C(F)(F)F)n1 [Example 98, 5-(4,8-diazaspiro[2.6]non-4-yl)-N-[1-methyl-3-(trifluoromethyl)-1H-pyrazol-4-yl]pyrazolo[1,5-a]pyrimidine-3-carboxamide trifluoroacetate]
8080 | O=C(Nc1ccccc1I)c1cnn2ccc(N3CCNCC4(CC4)C3)nc12 [Example 100, 5-(5,8-diazaspiro[2.6]non-5-yl)-N-(2-iodophenyl)pyrazolo[1,5-a]pyrimidine-3-carboxamide trifluoroacetate]
163 | Cn1cc(NC(=O)c2cnn3ccc(N4C5CCC6NC5CCC64)nc23)c(C(F)(F)F)n1 [Example 102, 5-(2,7-diazatricyclo[4.4.0.0~3,8~]dec-2-yl)-N-[1-methyl-3-(trifluoromethyl)-1H-pyrazol-4-yl]pyrazolo[1,5-a]pyrimidine-3-carboxamide trifluoroacetate]
6060 | O=C(Nc1ccccc1I)c1cnn2ccc(N3CC4CCC3CN4)nc12 (stereo not shown) [Example 103, 5-(2,5-diazabicyclo[2.2.2]oct-2-yl)-N-(2-iodophenyl)pyrazolo[1,5-a]pyrimidine-3-carboxamide trifluoroacetate]
1 | N[C@H]1CCCC[C@H]1Nc1ccn2ncc(C(=O)Nc3ccccc3Cl)c2n1 [Example 104, 5-{[(1R,2)S-2-aminocyclohexyl]amino}-N-(2-chlorophenyl)pyrazolo[1,5-a]pyrimidine-3-carboxamide trifluoroacetate]
1270 | O=C(Nc1ccccc1Cl)c1cnn2ccc(N3CCCNCC3)nc12 [Example 105, N-(2-chlorophenyl)-5-(1,4-diazepan-1-yl)pyrazolo[1,5-a]pyrimidine-3-carboxamide trifluoroacetate]
788 | N[C@@H]1[C@H](Nc2ccn3ncc(C(=O)Nc4ccccc4Cl)c3n2)CCCC1(F)F [Example 106, 5-{[(1R,2R)-2-amino-3,3-difluorocyclohexyl]amino}-N-(2-chlorophenyl)pyrazolo[1,5-a]pyrimidine-3-carboxamide trifluoroacetate]
521 | O=C(Nc1ccccc1Cl)c1cnn2ccc(N3CC4CCC3CN4)nc12 (stereo not shown) [Example 107, N-(2-chlorophenyl)-5-(2,5-diazabicyclo[2.2.2]oct-2-yl)pyrazolo[1,5-a]pyrimidine-3-carboxamide trifluoroacetate]
1890 | N[C@@H]1[C@H](Nc2ccn3ncc(C(=O)Nc4ccccc4Br)c3n2)CCCC1(F)F [Example 108, 5-{[(1R,2R)-2-amino-3,3-difluorocyclohexyl]amino}-N-(2-bromophenyl)pyrazolo[1,5-a]pyrimidine-3-carboxamide trifluoroacetate]
3360 | O=C(Nc1ccccc1Br)c1cnn2ccc(N3CCCNCC3)nc12 [Example 109, N-(2-bromophenyl)-5-(1,4-diazepan-1-yl)pyrazolo[1,5-a]pyrimidine-3-carboxamide trifluoroacetate]
193 | N#Cc1sccc1NC(=O)c1cnn2ccc(N3CC4CCC3CN4)nc12 (stereo not shown) [Example 110, N-(2-cyanothiophen-3-yl)-5-(2,5-diazabicyclo[2.2.2]oct-2-yl)pyrazolo[1,5-a]pyrimidine-3-carboxamide trifluoroacetate]
464 | N#Cc1sccc1NC(=O)c1cnn2ccc(N3CCCNCC3)nc12 [Example 111, N-(2-cyanothiophen-3-yl)-5-(1,4-diazepan-1-yl)pyrazolo[1,5-a]pyrimidine-3-carboxamide trifluoroacetate]
955 | O=C(Nc1ccccc1Br)c1cnn2ccc(N3CC4CCC3CN4)nc12 (stereo not shown) [Example 112, N-(2-bromophenyl)-5-(2,5-diazabicyclo[2.2.2]oct-2-yl)pyrazolo[1,5-a]pyrimidine-3-carboxamide trifluoroacetate]
2 | N[C@H]1CCCC[C@H]1Nc1ccn2ncc(C(=O)Nc3ccccc3Br)c2n1 [Example 113, 5-{[(1R,2S)-2-aminocyclohexyl]amino}-N-(2-bromophenyl)pyrazolo[1,5-a]pyrimidine-3-carboxamide trifluoroacetate]

IC50 [nM] | SMILES
3820 | N[C@@H]1[C@H](Nc2ccn3ncc(C(=O)Nc4ccccc4C(F)(F)F)c3n2)CCCC1(F)F [Example 114, 5-{[(1R,2R)-2-amino-3,3-difluorocyclohexyl]amino}-N-[2-(trifluoromethyl)phenyl] pyrazolo[1,5-a]pyrimidine-3-carboxamide trifluoroacetate]
5600 | O=C(Nc1ccccc1C(F)(F)F)c1cnn2ccc(N3CC4CCC3CN4)nc12 (stereo not shown) [Example 115, 5-(2,5-diazabicyclo[2.2.2]oct-2-yl)-N-[2-(trifluoromethyl)phenyl] pyraozlo[1,5-a]pyrimidine-3-carboxamide trifluoroacetate]
1 | N[C@H]1CCCC[C@H]1Nc1ccn2ncc(C(=O)Nc3ccsc3Cl)c2n1 [Example 116, 5-{[(1R,2S)-2-aminocyclohexyl]amino}-N-(2-chlorothiophen-3-yl)pyrazolo[1,5-a]pyrimidine-3-carboxamide trifluoroacetate]
403 | O=C(Nc1ccsc1Cl)c1cnn2ccc(N3CCCNCC3)nc12 [Example 117, N-(2-chlorothiophen-3-yl)-5-(1,4-diazepan-1-yl)pyrazolo[1,5-a]pyrimidine-3-carboxamide trifluoroacetate]
0.5 | N[C@H]1CCCC[C@H]1Nc1ccn2ncc(C(=O)Nc3cscc3C(F)F)c2n1 [Example 119, 5-{[(1R,2S)-2-aminocyclohexyl]amino}-N-[4-(difluoromethyl)thiophen-3-yl]pyrazolo[1,5-a]pyrimidine-3-carboxamide trifluoroacetate]
84 | O=C(Nc1cscc1C(F)F)c1cnn2ccc(N3CCCNCC3)nc12 [Example 120, 5-(1,4-diazepan-1-yl)-N-[4-(difluoromethyl)thiophen-3-yl]pyrazolo[1,5-a]pyrimidine-3-carboxamide trifluoroacetate]
124 | N[C@@H]1[C@H](Nc2ccn3ncc(C(=O)Nc4cscc4C(F)F)c3n2)CCCC1(F)F [Example 121, 5-{[(1R,2R)-2-amino-3,3-difluorocyclohexyl]amino}-N-[4-(difluoromethyl)thiophen-3-yl]pyrazolo[1,5-a]pyrimidine-3-carboxamide trifluoroacetate]
1140 | N[C@@H]1[C@H](Nc2ccn3ncc(C(=O)Nc4cscc4Br)c3n2)CCCC1(F)F [Example 122, 5-{[(1R,2R)-2-amino-3,3-difluorocyclohexyl]amino}-N-(4-bromothiophen-3-yl)pyrazolo[1,5-a]pyrimidine-3-carboxamide trifluoroacetate]
389 | O=C(Nc1cscc1Br)c1cnn2ccc(N3CCCNCC3)nc12 [Example 123, N-(4-bromothiophen-3-yl)-5-(1,4-diazepan-1-yl)pyrazolo[1,5-a]pyrimidine-3-carboxamide trifluoroacetate]
245 | O=C(Nc1cscc1Br)c1cnn2ccc(N3CC4CCC3CN4)nc12 (stereo not shown) [Example 124, N-(4-bromothiophen-3-yl)-5-(2,5-diazabicyclo[2.2.2]oct-2-yl)pyrazolo[1,5-a]pyrimidine-3-carboxamide trifluoroacetate]
119 | Cn1cc(NC(=O)c2cnn3ccc(N4CCCNCC4)nc23)c(C#N)n1 [Example 125, N-(3-cyano-1-methyl-1H-pyrazol-4-yl)-5-(1,4-diazepan-1-yl)pyrazolo[1,5-a]pyrimidine-3-carboxamide trifluoroacetate]
70 | Cn1cc(NC(=O)c2cnn3ccc(N[C@@H]4CCCC(F)(F)[C@@H]4N)nc23)c(C#N)n1 [Example 126, 5-{[(1R,2R)-2-amino-3,3-difluorocyclohexyl]amino}-N-(3-cyano-1-methyl-1H-pyrazol-4-yl)pyrazolo[1,5-a]pyrimidine-3-carboxamide trifluoroacetate]
419 | O=C(Nc1ccsc1Br)c1cnn2ccc(N3CCCNCC3)nc12 [Example 127, N-(2-bromothiophen-3-yl)-5-(1,4-diazepan-1-yl)pyrazolo[1,5-a]pyrimidine-3-carboxamide trifluoroacetate]
1240 | N[C@@H]1[C@H](Nc2ccn3ncc(C(=O)Nc4ccsc4Br)c3n2)CCCC1(F)F [Example 128, 5-{[(1R,2R)-2-amino-3,3-difluorocyclohexyl]amino}-N-(2-bromothiophen-3-yl)pyrazolo[1,5-a]pyrimidine-3-carboxamide trifluoroacetate]
2 | N[C@H]1CCCC[C@H]1Nc1ccn2ncc(C(=O)Nc3ccsc3Br)c2n1 [Example 129, 5-{[(1R,2S)-2-aminocyclohexyl]amino}-N-(2-bromothiophen-3-yl)pyrazolo[1,5-a]pyrimidine-3-carboxamide trifluoroacetate]

SMILES | IC50 [nM]
Cn1cc(NC(=O)c2cnn3ccc(NC4CCCCNC4)nc23)c(C(F)F)n1 (stereo not shown) [Example 99, 5-(azepan-3-ylamino)-N-[3-(difluoromethyl)-1-methyl-1H-pyrazol-4-yl]pyrazolo[1,5-a]pyrimidine-3-carboxamide] | 3
O=C(Nc1ccccc1I)c1cnn2ccc(N[C@@H]3CCCC[C@@H]3O)nc12 [Example 101, 5-{[(1R,2S)-2-hydroxycyclohexyl]amino}-N-(2-iodophenyl)pyrazolo[1,5-a]pyrimidine-3-carboxamide] | 7650
N[C@@H]1[C@H](Nc2ccn3ncc(C(=O)Nc4ccsc4Cl)c3n2)CCCC1(F)F [Example 118, 5-{[(1R,2R)-2-amino-3,3-difluorocyclohexyl]amino}-N-(2-chlorothiophen-3-yl)pyrazolo[1,5-a]pyrimidine-3-carboxamide trifluoroacetate] | 342
